{
  "source": "patent US11351218B2",
  "about": "“Composition for preventing or treating glioblastoma comprising Platycodon grandiflorum A. De Candolle, Scutellaria baicalensis, Phellodendron amurense Ruprecht or Rubus coreanus” (University-Industry Cooperation Group of Kyung Hee …, priority 2019, dated 2022)",
  "assay_type_in_all_cases": "cell-based, human",
  "key": {"p-ERK": {"test_system": "p-ERK", "test": "Immunoblot of ERK phosphorylation, U373MG cells", "conditions": "PD treatment, 24 hours", "procedure": "FIGS. 10A to 10D show the results that PD-mediated autophagy inhibition is independent of mTOR and MAPK signaling pathways. FIGS. 10A to 10C show the results in which cells were treated with PD (0 μM, 0.5 μM, 1 μM, 5 μM, and 10 μM) for 24 hours. The immunoblot analyses for p-ULK1 (Ser757), ULK1, p-S6K (Thr389), p-AKT (Ser473), ERK2, P-ERK, p-JNK1, Beclin, and ATG7 were performed using lysates from GBMs. […] Total protein extracts were analyzed by immunoblot analyses for p-ERK, LC3B, and SQSTM1. GAPDH was used as an internal control.\nCells treated with the concentrations and materials described in FIGS. 1-3B, 7, 8, 10, 13, 16, 18, and 20 were lysed in buffer containing 20 mM Tris-HCl (pH 7.5), 150 mM NaCl, 1 mM EDTA, 1 mM Na2EDTA, 1 mM EGTA, 1% NP-40, 1% sodium deoxycholate, 1 mM Na3VO4, 1 mM MPI, 1 mM PMSF, and PI cocktails for 15 to 20 minutes on ice. Cell lysates were separated by SDS-PAGE and transferred to nitrocellulose membranes. […] The protein bands were detected with ECL western Blotting Substrate (Thermo Fisher Scientific, Waltham, Mass., USA).\nPrevious studies have shown that PD enhances autophagy via mTOR/MAPK pathway. […] It is known that mTORC1 activation, measured by S6K phosphorylation, inhibits autophagy initiation by phosphorylating the ULK1 (Ser 757). […]"}, "U87MG and U373MG cells [1]": {"test_system": "U87MG and U373MG cells", "test": "Cholesterol measurement (total cholesterol assay kit) in GBM cells", "conditions": "PD 10 μM or U18666a 1 μM, 24 hours", "procedure": "FIGS. 15A and 15B show the results that PD promotes accumulation of cholesterol in lysosomes. Cells were treated with DMSO, PD (10 μM), or U18666a (1 μM) for 24 hours. […] Total cholesterol levels are expressed in cholesterol (μg) per protein (mg) of cell lysate and are shown as means±SD from two independent experiments.\nCells treated as described above were processed using a total cholesterol assay kit (STA384, Cell Biolabs) according to the manufacterer's instructions. Cholesterol esters and free cholesterol were quantified by homogenizing 10^6 cells extracted from a 200 μL mixture of chloroform: isopropanol: NP-40 (7:11:0.1). After centrifugation of the extract at 15,000× g for 10 minutes, the organic phase was collected and evaporated at 50° C. The extract was resuspended in 200 μL of a 1× cholesterol assay diluent prior to analysis. The colorimetric signal was analyzed using an ELISA reader (Versa Max, Molecular Devices, Sunnyvale, Calif., USA) at 540 nm. Cellular cholesterol results were reported as μg of cholesterol per mg of cell protein."}, "U87MG and U373MG cells [2]": {"test_system": "U87MG and U373MG cells", "test": "BODIPY FL LDL uptake assay, GBM cells", "conditions": "PD 10 μM 24 hours, BODIPY FL LDL 1 hour", "procedure": "(§1) Cells were treated with DMSO, PD (10 μM), or U18 (1 μM) for 24 hours and subsequently loaded with BODIPY™ FL LDL. BODIPY-LDL uptake was visualized by confocal microscopy. Nuclei were stained with DAPI (blue). Quantification shown on the right graph represents a relative fold change from three independent experiments±SD.\n(§2) Cells seeded on coverslips were treated with the materials and then the culture medium was replaced with BODIPY™ FL LDL (Thermo Fisher Scientific) at a working concentration of 5 μg/mL in a medium. The cells were additionally incubated at 37° C. for 1 hour. The degree of LDL uptake was measured using a Zeiss laser confocal microscope.\n(§3) Based on the previous study results of the present inventors that PD increases cell surface LDLR expression and accumulate cholesterol within lysosomes, whether PD can increase the uptake of exogenous LDL was examined Cells pretreated with PD or U18666A were incubated with BODIPY FL-labeled LDL particles for 1 hour and the LDL uptake was observed by a confocal microscope. Upon analysis of these cells, it was observed that PD caused about a 6-fold increase in LDL uptake and it was a level similar to that detected in the U18666A-treated cells."}, "normal astrocytes": {"test_system": "normal astrocytes", "test": "BODIPY FL LDL uptake assay, normal astrocytes", "conditions": "PD 10 μM or U18 1 μM, 24 hours", "procedure": "as §1, §2, §3"}, "LDLR-silenced GBM cells": {"test_system": "LDLR-silenced GBM cells", "test": "WST1 assay and immunoblot in LDLR-silenced (shLDLR) GBM cells", "excerpt": "FIGS. 20A and 20B show the results that downregulation of LDLR restores inhibition of autophagy and cell viability. […] The expressions of LDLR, LC3B, SQSTM1, and pro/active CTSB were detected by immunoblot analysis. GAPDH was used as a loading control. […] Data shown represent the means of quintuplicate measurements which were repeated three times. The results are presented as a percentage of control (means±SD).\nshRNA sequences against LDLR were cloned into a lentiviral vector. For the production of lentivirus, the vectors were co-transfected with psPAX2 and pMD2.G in 293T cells using Lipofectamine 3,000 (Invitrogen). Then, the cultured medium was harvested. The viral supernatant was applied to GBMs and cells were selected in puromycin for 3 additional days. The shRNA sequence was as follows. shLDLR sequence: 5′-CCACTTGTAGGAGATGCAT-3′ (SEQ ID NO: 7).\nThe present inventors hypothesized that the enhanced expression of LDLR and uptake of exogenous cholesterol by PD may promote accumulation of cholesterol in lysosomes and contribute to PD-mediated inhibition of autophagy and cell viability in GBM cells. To this end, the expression of LDLR gene was silenced in GBM cells using lentiviral shRNA transduction."}},
  "data": [
    {"smiles": "C[C@@H]1O[C@@H](O[C@H]2[C@H](OC(=O)[C@]34CCC(C)(C)C[C@H]3C3=CC[C@@H]5[C@@]6(C)C[C@H](O)[C@H](O[C@@H]7O[C@H](CO)[C@@H](O)[C@H](O)[C@H]7O)C(CO)(CO)[C@@H]6CC[C@@]5(C)[C@]3(C)C[C@H]4O)OC[C@H](O)[C@@H]2O)[C@H](O)[C@H](O)[C@H]1O[C@@H]1OC[C@@H](O)[C@H](O[C@@H]2OC[C@](O)(CO)[C@H]2O)[C@H]1O", "note": "[PD, platycodin D]", "values": [
      {"measurement": "phosphorylation levels of ERK", "setting": "p-ERK", "value": "markedly increased"},
      {"measurement": "free cholesterol levels", "setting": "U87MG and U373MG cells [1]", "value": "significant increase"},
      {"measurement": "increase in LDL uptake", "setting": "U87MG and U373MG cells [2]", "value": "~6", "unit": "fold"},
      {"measurement": "LDL uptake", "setting": "normal astrocytes", "value": "less effective"},
      {"measurement": "reduction of cell viability", "setting": "LDLR-silenced GBM cells; LDLR-silenced GBM cells, PD 10 μM or 20 μM, WST1", "value": "less effective"},
      {"measurement": "LC3-II, p62 and cathepsin B response to PD", "setting": "LDLR-silenced GBM cells; knockdown of LDLR, PD 5 μM or 10 μM, 24 hours, immunoblot", "value": "prevented the upregulation of LC3-II and p62 as well as the inactivation of cathpsin B"}
    ]}
  ]
}
